Laboratory results from ChEMBL document CHEMBL5465560, “Selectivity Literature for EUbOPEN Chemogenomic Library” (2024).

Columns and labels:
[1] = target: T1, Myotonin-protein kinase (Homo sapiens) (UniProt Q09013); experiment: Selectivity interaction (KinomeScan (DiscoverX)) EUB0000229b DMPK; details: at 10 µM
T1 sequence (whole entry): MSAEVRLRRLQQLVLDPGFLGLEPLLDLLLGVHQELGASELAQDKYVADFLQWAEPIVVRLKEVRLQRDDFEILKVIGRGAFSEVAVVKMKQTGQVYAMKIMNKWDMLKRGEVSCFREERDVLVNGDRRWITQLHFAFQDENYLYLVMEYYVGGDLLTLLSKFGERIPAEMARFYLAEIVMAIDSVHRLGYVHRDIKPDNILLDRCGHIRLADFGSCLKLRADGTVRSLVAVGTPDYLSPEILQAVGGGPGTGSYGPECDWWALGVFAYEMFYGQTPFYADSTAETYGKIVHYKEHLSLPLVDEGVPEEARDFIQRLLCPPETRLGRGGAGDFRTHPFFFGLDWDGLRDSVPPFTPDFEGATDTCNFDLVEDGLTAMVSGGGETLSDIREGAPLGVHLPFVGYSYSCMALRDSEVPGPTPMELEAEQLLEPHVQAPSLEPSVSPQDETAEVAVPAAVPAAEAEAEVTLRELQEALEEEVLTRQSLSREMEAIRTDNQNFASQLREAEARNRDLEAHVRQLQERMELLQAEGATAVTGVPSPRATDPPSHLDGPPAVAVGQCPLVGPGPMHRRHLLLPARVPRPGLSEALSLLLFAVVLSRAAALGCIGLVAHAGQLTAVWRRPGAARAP

[2] = target: Interleukin-1 receptor-associated kinase 1 (Homo sapiens) (UniProt P51617); experiment: Selectivity interaction (KinomeScan (DiscoverX)) EUB0000229b IRAK1; details: at 10 µM
[3] = test system: Mast/stem cell growth factor receptor Kit (Homo sapiens), P10721 [V559D,T670I]; details: at 10 µM
[4] = target: Activin receptor type-2B (Homo sapiens) (UniProt Q13705); experiment: Selectivity interaction (KinomeScan (DiscoverX)) EUB0001049a ACVR2B; details: at 1 µM
Chain of Activin receptor type-2B (Homo sapiens) (Q13705 whole entry): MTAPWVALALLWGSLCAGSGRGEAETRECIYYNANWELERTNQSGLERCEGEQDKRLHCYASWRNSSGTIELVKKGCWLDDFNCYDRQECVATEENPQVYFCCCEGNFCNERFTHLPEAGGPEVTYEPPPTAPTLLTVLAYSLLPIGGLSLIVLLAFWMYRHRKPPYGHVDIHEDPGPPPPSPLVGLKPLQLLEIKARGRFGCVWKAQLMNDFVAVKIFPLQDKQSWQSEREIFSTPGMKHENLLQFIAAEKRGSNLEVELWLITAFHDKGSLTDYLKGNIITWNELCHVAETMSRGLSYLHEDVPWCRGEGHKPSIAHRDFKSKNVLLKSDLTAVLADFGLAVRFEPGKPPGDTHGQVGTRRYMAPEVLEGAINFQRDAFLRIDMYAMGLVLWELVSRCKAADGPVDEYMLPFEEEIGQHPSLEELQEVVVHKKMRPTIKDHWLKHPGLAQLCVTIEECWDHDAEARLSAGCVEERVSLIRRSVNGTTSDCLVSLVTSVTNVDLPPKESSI

[5] = test system: Fibroblast growth factor receptor 3 (Homo sapiens), P22607 [G697C]; experiment: (§1) Selectivity interaction (KinomeScan (DiscoverX)) EUB0001619a FGFR3; details: at 1 µM
[6] = target: Fibroblast growth factor receptor 3 (Homo sapiens, UniProt P22607); experiment: as §1; details: at 1 µM
Chain of Fibroblast growth factor receptor 3 (P22607 23-806 limits assumed): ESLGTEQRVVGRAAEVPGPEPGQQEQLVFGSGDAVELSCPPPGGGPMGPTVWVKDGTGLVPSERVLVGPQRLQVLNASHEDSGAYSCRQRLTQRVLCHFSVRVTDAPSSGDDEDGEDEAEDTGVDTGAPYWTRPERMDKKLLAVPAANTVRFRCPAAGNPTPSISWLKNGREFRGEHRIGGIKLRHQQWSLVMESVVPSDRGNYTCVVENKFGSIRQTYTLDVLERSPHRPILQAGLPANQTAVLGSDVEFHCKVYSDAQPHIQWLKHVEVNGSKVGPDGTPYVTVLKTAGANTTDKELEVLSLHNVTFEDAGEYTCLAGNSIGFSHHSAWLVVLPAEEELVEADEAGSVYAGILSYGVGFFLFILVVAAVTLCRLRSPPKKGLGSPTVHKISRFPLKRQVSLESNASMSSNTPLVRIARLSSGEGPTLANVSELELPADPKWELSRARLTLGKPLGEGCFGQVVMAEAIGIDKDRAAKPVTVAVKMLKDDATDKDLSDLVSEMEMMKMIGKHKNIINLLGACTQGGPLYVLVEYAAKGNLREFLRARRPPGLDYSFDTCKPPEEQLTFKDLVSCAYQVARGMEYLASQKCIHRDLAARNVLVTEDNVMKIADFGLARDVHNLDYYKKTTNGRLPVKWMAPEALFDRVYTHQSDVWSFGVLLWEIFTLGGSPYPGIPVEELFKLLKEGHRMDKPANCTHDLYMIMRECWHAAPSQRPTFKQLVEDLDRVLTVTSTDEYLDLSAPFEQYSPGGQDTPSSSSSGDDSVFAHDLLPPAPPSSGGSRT

[7] = target: T2, Ephrin type-A receptor 3 (Homo sapiens) (UniProt P29320); experiment: Selectivity interaction (KinomeScan (DiscoverX)) EUB0000618a EPHA3; details: at 10 µM
T2 sequence (whole entry): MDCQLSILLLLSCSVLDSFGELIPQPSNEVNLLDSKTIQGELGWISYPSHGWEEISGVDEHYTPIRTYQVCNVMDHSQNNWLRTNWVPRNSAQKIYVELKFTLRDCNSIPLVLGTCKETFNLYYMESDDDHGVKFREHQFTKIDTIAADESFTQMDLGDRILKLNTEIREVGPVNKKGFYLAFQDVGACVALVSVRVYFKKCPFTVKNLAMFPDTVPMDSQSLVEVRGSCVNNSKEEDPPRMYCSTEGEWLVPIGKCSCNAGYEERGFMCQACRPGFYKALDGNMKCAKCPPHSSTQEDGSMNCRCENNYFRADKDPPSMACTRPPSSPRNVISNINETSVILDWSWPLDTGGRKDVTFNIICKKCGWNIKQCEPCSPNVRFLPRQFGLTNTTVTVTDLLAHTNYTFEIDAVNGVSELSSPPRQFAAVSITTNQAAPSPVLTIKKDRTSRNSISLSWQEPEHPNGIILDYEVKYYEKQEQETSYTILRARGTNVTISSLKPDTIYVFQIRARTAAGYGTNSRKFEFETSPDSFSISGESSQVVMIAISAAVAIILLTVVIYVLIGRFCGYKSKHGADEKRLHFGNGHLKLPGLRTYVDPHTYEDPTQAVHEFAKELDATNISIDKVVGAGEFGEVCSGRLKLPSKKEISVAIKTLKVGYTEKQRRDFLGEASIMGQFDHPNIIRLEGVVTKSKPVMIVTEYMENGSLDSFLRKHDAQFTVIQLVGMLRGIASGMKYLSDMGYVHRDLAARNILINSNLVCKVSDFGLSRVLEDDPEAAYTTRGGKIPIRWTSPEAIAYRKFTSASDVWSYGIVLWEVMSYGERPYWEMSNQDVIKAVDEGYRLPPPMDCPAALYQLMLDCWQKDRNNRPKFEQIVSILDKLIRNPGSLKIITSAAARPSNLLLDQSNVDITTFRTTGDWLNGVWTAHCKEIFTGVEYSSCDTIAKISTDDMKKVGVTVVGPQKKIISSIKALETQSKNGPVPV

[8] = target: Tyrosine-protein kinase JAK1 (Homo sapiens, UniProt P23458); experiment: Selectivity interaction (ActivX KiNativ screen (kinase selectivity in THP-1 cell lysates)) EUB0000639a JAK1; assay type: subcellular; details: lysate, at 0.04 µM
Chain of Tyrosine-protein kinase JAK1 (P23458 whole entry): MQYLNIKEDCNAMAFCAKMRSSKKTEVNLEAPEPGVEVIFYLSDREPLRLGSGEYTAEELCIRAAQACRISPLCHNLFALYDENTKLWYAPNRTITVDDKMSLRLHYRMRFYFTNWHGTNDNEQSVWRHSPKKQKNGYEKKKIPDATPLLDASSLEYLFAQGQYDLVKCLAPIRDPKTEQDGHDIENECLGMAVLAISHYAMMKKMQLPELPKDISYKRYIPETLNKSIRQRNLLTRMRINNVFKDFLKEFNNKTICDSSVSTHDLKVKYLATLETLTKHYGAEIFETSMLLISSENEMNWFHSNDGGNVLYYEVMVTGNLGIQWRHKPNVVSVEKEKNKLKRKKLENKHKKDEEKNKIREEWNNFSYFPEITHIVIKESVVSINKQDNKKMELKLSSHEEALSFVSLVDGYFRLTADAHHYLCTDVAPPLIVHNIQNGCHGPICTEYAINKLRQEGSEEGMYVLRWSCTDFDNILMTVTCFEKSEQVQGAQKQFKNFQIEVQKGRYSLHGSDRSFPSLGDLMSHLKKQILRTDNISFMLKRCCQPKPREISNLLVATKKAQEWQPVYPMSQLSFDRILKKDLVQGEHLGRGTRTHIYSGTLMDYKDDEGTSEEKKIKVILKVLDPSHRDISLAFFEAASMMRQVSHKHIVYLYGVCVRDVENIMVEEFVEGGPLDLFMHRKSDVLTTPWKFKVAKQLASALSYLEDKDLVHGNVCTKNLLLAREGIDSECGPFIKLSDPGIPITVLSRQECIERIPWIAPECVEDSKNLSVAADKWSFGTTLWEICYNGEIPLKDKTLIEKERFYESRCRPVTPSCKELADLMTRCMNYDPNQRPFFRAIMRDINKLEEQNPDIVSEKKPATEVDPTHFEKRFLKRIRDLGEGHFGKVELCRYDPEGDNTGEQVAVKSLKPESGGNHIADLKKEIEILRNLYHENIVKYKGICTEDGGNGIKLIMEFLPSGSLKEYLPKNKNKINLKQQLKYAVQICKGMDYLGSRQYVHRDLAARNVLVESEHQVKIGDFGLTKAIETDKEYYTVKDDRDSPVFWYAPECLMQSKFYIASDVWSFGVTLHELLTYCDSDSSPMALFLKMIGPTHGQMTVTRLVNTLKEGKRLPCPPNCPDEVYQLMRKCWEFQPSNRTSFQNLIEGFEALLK

[9] = target: T3, Dual specificity mitogen-activated protein kinase kinase 3 (Homo sapiens) (UniProt P46734); experiment: Selectivity interaction (ActivX KiNativ screen (kinase selectivity in THP-1 cell lysates)) EUB0000639a MAP2K3; assay type: subcellular; details: lysate, at 0.04 µM
T3 sequence (whole entry): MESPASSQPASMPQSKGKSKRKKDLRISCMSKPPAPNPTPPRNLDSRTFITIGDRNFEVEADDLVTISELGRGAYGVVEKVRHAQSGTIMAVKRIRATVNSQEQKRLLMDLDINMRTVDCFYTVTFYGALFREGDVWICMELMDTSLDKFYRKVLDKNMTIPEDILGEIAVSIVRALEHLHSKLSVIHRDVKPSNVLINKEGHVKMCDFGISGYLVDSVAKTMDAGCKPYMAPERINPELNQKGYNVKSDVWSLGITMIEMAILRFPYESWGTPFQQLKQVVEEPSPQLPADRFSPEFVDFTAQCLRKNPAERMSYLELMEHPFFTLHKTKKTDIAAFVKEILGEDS

[10] = target: MAP kinase-activated protein kinase 3 (Homo sapiens) (UniProt Q16644); experiment: Selectivity interaction (Kinase panel (Invitrogen)) EUB0000639a MAPKAPK3; details: at 200 nM
Chain of MAP kinase-activated protein kinase 3 (Homo sapiens) (Q16644 whole entry, looked up): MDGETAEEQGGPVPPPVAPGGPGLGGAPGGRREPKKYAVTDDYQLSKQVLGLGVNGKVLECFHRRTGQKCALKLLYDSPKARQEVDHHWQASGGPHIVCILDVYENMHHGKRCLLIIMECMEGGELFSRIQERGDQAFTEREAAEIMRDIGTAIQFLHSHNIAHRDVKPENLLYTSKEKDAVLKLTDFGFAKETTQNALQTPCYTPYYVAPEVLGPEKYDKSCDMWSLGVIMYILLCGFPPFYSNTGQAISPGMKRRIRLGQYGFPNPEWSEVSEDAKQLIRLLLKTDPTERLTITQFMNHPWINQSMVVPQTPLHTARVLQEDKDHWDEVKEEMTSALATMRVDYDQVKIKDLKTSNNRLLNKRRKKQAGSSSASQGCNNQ

[11] = target: Cyclin-dependent kinase-like 1 (Homo sapiens) (UniProt Q00532); experiment: Selectivity interaction (KinomeScan (DiscoverX)) EUB0000655a CDKL1; details: at 10 µM
[12] = target: Receptor tyrosine-protein kinase erbB-4 (Homo sapiens, UniProt Q15303); experiment: Selectivity interaction (KinomeScan (DiscoverX)) EUB0000655a ERBB4; details: at 10 µM
[13] = Selectivity interaction (KinomeScan (DiscoverX)) EUB0000655a CDPK1; details: at 10 µM
[14] = test system: Proto-oncogene tyrosine-protein kinase receptor Ret (Homo sapiens), P07949 [M918T]; experiment: (§2) Selectivity interaction (Ambit KINOMEscan and KiNATiv profiling in Jurkat cells) EUB0000090b RET; assay type: cell-based; details: at 1 µM
Chain of Proto-oncogene tyrosine-protein kinase receptor Ret (Homo sapiens), P07949 [M918T] (P07949 whole entry M918T): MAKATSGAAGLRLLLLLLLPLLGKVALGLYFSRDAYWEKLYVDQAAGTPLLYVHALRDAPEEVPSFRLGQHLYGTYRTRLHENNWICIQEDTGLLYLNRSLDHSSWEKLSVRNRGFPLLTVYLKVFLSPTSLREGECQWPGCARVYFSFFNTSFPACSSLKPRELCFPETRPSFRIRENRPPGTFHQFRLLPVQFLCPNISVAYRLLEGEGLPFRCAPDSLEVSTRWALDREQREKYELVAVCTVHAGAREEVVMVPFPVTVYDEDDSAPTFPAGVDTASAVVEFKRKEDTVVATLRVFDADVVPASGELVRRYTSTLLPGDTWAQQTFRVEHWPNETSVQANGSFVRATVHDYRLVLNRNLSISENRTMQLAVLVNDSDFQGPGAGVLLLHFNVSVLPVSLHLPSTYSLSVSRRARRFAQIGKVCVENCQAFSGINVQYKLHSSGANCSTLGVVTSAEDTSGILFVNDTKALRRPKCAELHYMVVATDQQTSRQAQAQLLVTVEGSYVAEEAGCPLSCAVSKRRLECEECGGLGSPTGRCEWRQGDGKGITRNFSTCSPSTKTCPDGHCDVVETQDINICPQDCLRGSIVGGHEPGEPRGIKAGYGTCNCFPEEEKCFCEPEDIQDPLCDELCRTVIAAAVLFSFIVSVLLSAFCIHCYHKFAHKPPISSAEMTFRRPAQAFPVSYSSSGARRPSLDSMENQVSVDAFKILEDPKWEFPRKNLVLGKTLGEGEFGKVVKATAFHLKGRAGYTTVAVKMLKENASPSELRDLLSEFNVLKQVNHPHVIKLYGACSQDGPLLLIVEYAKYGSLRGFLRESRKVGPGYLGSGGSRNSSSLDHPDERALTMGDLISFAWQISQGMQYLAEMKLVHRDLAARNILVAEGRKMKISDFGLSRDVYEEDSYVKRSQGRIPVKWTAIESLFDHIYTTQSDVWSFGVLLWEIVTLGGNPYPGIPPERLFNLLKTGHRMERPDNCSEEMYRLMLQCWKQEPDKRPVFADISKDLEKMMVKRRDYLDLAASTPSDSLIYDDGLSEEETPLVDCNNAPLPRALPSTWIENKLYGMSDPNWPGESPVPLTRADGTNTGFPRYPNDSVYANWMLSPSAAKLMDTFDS

[15] = test system: Proto-oncogene tyrosine-protein kinase receptor Ret (Homo sapiens), P07949 [V804L]; experiment: as §2; assay type: cell-based; details: at 1 µM
Chain of Proto-oncogene tyrosine-protein kinase receptor Ret (Homo sapiens), P07949 [V804L] (P07949 whole entry V804L): as the sequence (P07949 whole entry M918T) above, with V804L, T918M counted along it

[16] = test system: Proto-oncogene tyrosine-protein kinase receptor Ret (Homo sapiens), P07949 [V804M]; experiment: as §2; assay type: cell-based; details: at 1 µM
[17] = target: Proto-oncogene tyrosine-protein kinase receptor Ret (Homo sapiens, UniProt P07949); experiment: as §2; assay type: cell-based; details: at 1 µM

With `COc1cc(N(C)c2ccnc3ccc(C(F)(F)F)cc23)cc(OC)c1OC` the % binding [1] was 87% and the % binding [2] was 88%.

`Cc1cc([C@@H](C)Nc2ccccc2C(=O)O)c2nc(N3CCOCC3)cc(=O)n2c1` [AZD-6482] gave a % of control [3] of 91%.

Work on `COc1cc(Nc2nc(C)cc(-c3cnn4nc(OC)ccc34)n2)cc(C(F)(F)F)c1` yielded a % of control [4] of 92%.

In the case of `N#Cc1cccc(-c2c[nH]c3ncnc(N4CCOCC4)c23)c1`, the % of control [5] is reported as 100% and the % of control [6] is reported as 100%.

Molecule `O[C@H]1CC[C@H](Nc2ncc3nc(Nc4c(F)cc(F)cc4F)n([C@H]4CCOC4)c3n2)CC1` has a % of control [7] of 85%.

With `CC[C@@H]1[C@H](F)C(=O)N[C@@H]1COc1nccc2cc(C(N)=O)c(OC)cc12` [ZIMLOVISERTIB] the % of inhibition [8] was 14.8%, the % of inhibition [9] was -19% and the % of inhibition [10] was 3.83%.

Work on `CN(C)CCOc1ccc(-c2nc(-c3ccncc3)c(-c3ccc4c(c3)CC/C4=N\O)[nH]2)cc1` yielded a % of control [11] of 100%, a % of control [12] of 73% and a % of control [13] of 15%.

In the case of `CN(C)C/C=C/C(=O)Nc1ccc(C(=O)N2CCCC(Nc3ncc(Cl)c(-c4c[nH]c5ccccc45)n3)C2)cc1` (configuration not stated), the % of control [14] is reported as 68%, the % of control [15] is reported as 71% and the % of control [16] is reported as 89%. The % of control [17] was 90%.
